# Assay results taken from US12612389B2, “Benzofuran-based N-acylhydrazone derivative and pharmaceutical composition comprising same” (KOREA RESEARCH INSTITUTE OF BIOSCIENCE AND BIOTECHNOLOGY, priority 2019, dated 2026).
# What was measured:
# Assay in all cases: Anti-proliferative activity in other cancer cell lines (MTT)
# Assay type in all cases: cell-based
# [1] = tested on: U-2-OS; conditions: Homo sapiens, U2OS, 96 h, Bone, 4 days
# Method: (§1) HeLa cells (American Type Culture Collection: ATCC, USA), a human cervical cancer cell line, were seeded in a 96-well plate at 3×10^3 cells/well, and the cells were then treated with compounds of Examples or Comparative Example according to the present invention and grown for 2 days. Then, MTT (3-(4,5-dimethylthiazol-2-yl)-2,5-diphenyltetrazolium bromide) reagent was added at 10 μL/well. After 2 hours, absorbance was measured at “OD 450” and statistical values were obtained using Prism™6 program. The data shown in Table below are mean values of results obtained by repeating the analysis twice.
# (§2) Specifically, various cancer cell lines were cultured in a microtiter plate (1-3×10^3 cells/well), treated with the compound of Example 4 according to the present invention, and cultured for 4 days. Cytotoxicity was tested by MTT assay in the same manner as in Experimental Example 1-1, and IC50 was obtained by a log-dose response curve. The data shown in Table below are mean values of results obtained by repeating the analysis three times.
# [2] = tested on: PC3; conditions: Homo sapiens, PC-3, 96 h, Prostate, 4 days
# Method: as §1, §2
# [3] = tested on: NCI-H125; conditions: Homo sapiens, 96 h, Lung, 4 days
# Method: as §1, §2
# [4] = tested on: SK-N-MC; conditions: Homo sapiens, 96 h, Brain, 4 days
# Method: as §1, §2
# [5] = tested on: SNB75; conditions: Homo sapiens, SNB-75, 96 h, CNS, 4 days
# Method: as §1, §2
# [6] = tested on: HeLa CCL2; conditions: Homo sapiens, 96 h, Cervix, 4 days
# Method: as §1, §2
# [7] = tested on: MOLT4; conditions: Homo sapiens, MOLT-4, 96 h, Marrow (leukemia), 4 days
# Method: as §1, §2
# [8] = tested on: SNU 484; conditions: 96 h, Stomach, 4 days
# Method: as §1, §2
# [9] = tested on: Colo 205; conditions: Homo sapiens, 96 h, Colon, 4 days
# Method: as §1, §2
# [10] = tested on: HCC1954; conditions: Homo sapiens, 96 h, Breast, 4 days
# Method: as §1, §2
# [11] = tested on: DU145; conditions: Homo sapiens, DU-145, 96 h, Prostate, 4 days
# Method: as §1, §2
# [12] = tested on: NCI-H460; conditions: Homo sapiens, 96 h, Lung, 4 days
# Method: as §1, §2
# [13] = tested on: NCI-H1299; conditions: Homo sapiens, 96 h, Lung, 4 days
# Method: as §1, §2
# [14] = tested on: Hep3B; conditions: Homo sapiens, 96 h, Liver, 4 days
# Method: as §1, §2
# [15] = tested on: K562; conditions: Homo sapiens, 96 h, Marrow (leukemia), 4 days
# Method: as §1, §2
# [16] = tested on: A498; conditions: Homo sapiens, 96 h, Kidney, 4 days
# Method: as §1, §2
# [17] = tested on: HCT 116; conditions: Homo sapiens, 96 h, Colon, 4 days
# Method: as §1, §2
# [18] = tested on: 786-O; conditions: Homo sapiens, 786-0, 96 h, Kidney, 4 days
# Method: as §1, §2
# [19] = tested on: A431; conditions: Homo sapiens, A-431, 96 h, Skin, 4 days
# Method: as §1, §2
# [20] = tested on: MDA-MB-468; conditions: Homo sapiens, 96 h, Breast, 4 days
# Method: as §1, §2
# [21] = tested on: SK-MEL 5; conditions: Homo sapiens, 96 h, Skin, 4 days
# Method: as §1, §2
# [22] = tested on: A172; conditions: Homo sapiens, A 172, 96 h, Brain, 4 days
# Method: as §1, §2
# [23] = tested on: NCI-H226; conditions: Homo sapiens, 96 h, Lung, 4 days
# Method: as §1, §2
# [24] = tested on: HCT-15; conditions: Homo sapiens, 96 h, Colon, 4 days
# Method: as §1, §2
# [25] = tested on: RPMI-8226; conditions: Homo sapiens, 96 h, Marrow (leukemia), 4 days
# Method: as §1, §2
# [26] = tested on: CCRF-CEM; conditions: Homo sapiens, 96 h, Peripheral blood, 4 days
# Method: as §1, §2
# [27] = tested on: NCI-H522; conditions: Homo sapiens, 96 h, Lung, 4 days
# Method: as §1, §2
# [28] = tested on: A549; conditions: Homo sapiens, 96 h, A549 (line stands under Liver), 4 days
# Method: as §1, §2
# [29] = tested on: U373MG; conditions: Homo sapiens, U373 MG, 96 h, Brain, 4 days
# Method: as §1, §2
smiles,measurement,setting,value
"CCOCCn1c(Cl)c(/C=N/NC(=O)c2cc3cc(C)ccc3o2)c2ccccc21 [Example 4, (E)-N′-[(2-chloro-1-(2-ethoxyethyl)-1H-indol-3-yl]methylene}-5-methylbenzofuran-2-carbohydrazide]",IC50,[1],0.42 ± 0.06 µM
same,IC50,[2],0.71 ± 0.18 µM
same,IC50,[3],0.37 ± 0.2 µM
same,IC50,[4],0.98 ± 0.11 µM
same,IC50,[5],0.39 ± 0.03 µM
same,IC50,[6],0.18 ± 0.004 µM
same,IC50,[7],0.3 ± 0.01 µM
same,IC50,[8],0.35 ± 0.07 µM
same,IC50,[9],0.36 ± 0.49 µM
same,IC50,[10],0.41 ± 0.05 µM
same,IC50,[11],0.49 ± 0.09 µM
same,IC50,[12],0.5 ± 0.09 µM
same,IC50,[13],0.56 ± 0.15 µM
same,IC50,[14],0.19 ± 0.05 µM
same,IC50,[15],0.47 ± 0.012 µM
same,IC50,[16],0.17 ± 0.008 µM
same,IC50,[17],0.45 ± 0.22 µM
same,IC50,[18],0.13 ± 0.05 µM
same,IC50,[19],0.22 ± 0.017 µM
same,IC50,[20],0.69 ± 0.03 µM
same,IC50,[21],0.46 ± 0.14 µM
same,IC50,[22],0.79 ± 0.09 µM
same,IC50,[23],0.42 ± 0.06 µM
same,IC50,[24],0.28 ± 0.07 µM
same,IC50,[25],0.52 ± 0.13 µM
same,IC50,[26],0.34 ± 0.02 µM
same,IC50,[27],0.37 ± 0.13 µM
same,IC50,[28],0.63 ± 0.12 µM
same,IC50,[29],0.36 ± 0.01 µM
